Test results reported in US11040979B2, “Substituted pyrrolo[1,2-b]pyridazines for treating disorders related to KIT and PDGFR” (Blueprint Medicines Corporation, priority 2017, dated 2021).

What was measured:
Experiment in all cases: Kinase profiling with recombinant enzyme, 33P-ATP filter-binding method
Format in all cases: biochemical
[1] = biological target: KIT V559D/T670I (Homo sapiens (Human), UniProt P10721, T670I/V559D); details: c-KIT V559D/T670I, poly[Glu:Tyr] (4:1), ATP (Km) 5 uM; read-out: INH-KITV559D/T670I (exon 13) IC50
Chain of KIT V559D/T670I (P10721 26-976 V559D/T670I): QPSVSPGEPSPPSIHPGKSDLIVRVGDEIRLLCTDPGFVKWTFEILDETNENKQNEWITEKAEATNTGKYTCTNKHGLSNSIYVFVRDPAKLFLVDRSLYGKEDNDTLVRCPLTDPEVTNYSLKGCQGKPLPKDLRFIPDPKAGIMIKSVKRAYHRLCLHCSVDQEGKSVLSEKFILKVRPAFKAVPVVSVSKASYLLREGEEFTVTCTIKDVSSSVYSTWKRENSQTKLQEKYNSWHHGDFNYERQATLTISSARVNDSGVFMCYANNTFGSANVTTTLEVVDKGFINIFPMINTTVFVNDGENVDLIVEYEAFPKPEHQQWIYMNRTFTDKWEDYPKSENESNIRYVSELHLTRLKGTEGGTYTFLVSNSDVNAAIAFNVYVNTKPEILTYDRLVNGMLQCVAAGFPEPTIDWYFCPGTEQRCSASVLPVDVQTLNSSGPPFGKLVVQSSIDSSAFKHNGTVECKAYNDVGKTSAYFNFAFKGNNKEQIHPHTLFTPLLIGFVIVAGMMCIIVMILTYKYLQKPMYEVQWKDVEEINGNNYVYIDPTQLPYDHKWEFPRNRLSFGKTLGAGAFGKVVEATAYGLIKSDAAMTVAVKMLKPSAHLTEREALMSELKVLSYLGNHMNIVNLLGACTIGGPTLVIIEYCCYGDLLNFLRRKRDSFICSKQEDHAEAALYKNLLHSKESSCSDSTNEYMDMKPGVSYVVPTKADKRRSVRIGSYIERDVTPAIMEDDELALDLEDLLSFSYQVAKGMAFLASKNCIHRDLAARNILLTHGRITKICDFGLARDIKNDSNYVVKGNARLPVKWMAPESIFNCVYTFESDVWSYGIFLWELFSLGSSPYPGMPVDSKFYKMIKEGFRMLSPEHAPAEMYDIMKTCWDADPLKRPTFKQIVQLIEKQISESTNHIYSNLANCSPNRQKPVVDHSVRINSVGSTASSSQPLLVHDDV
Protocol: (§1) KIT, KIT mutant, and PDGFRα mutant kinase profiling was performed with recombinant enzymes including wild-type KIT, KIT V560G, KIT V559D/T670I, V559D/V654A, and PDGFRα D842V. Kinase/substrate pairs were prepared in reaction buffer (20 mM Hepes (pH 7.5), 10 mM MgCl2, 1 mM EGTA, 0.02% Brij35, 0.02 mg/ml BSA, 0.1 mM Na3VO4, 2 mM DTT, 1% DMSO). Compounds were dissolved at 10 mM in 100% DMSO, serial diluted and added to the kinase/substrate mix in final concentrations from 10 uM to 0.5 pM. Compounds were incubated with the recombinant enzymes and substrates at room temperature for 20 minutes with their respective Km for ATP. ^33P-ATP (10 mCi/mL) was added to initiate the reaction. Incubation for two hours at room temperature was followed by spotting onto P81 ion exchange paper and detection of kinase activity by a filter-binding method.
(§2) Conditions for Specific Enzyme Assays:
(§3) Data was normalized to 0% and 100% inhibition controls and the IC50 calculated using a 4-parameter curve fit.

[2] = biological target: KIT V559D/V654A (Homo sapiens (Human), UniProt P10721, V559D/V654A); details: c-KIT V559D/V654A, poly[Glu:Tyr] (4:1), ATP (Km) 20 uM; read-out: INH-KITV559D/V654A (exon 13) IC50
Chain of KIT V559D/V654A (P10721 26-976 V559D/V654A): as the sequence (P10721 26-976 V559D/T670I) above, with V629A, I645T counted along it
Protocol: as §1, §2, §3

[3] = biological target: KIT V560G (Homo sapiens (Human), UniProt P10721, V560G); details: c-KIT V560G, poly[Glu:Tyr] (4:1), ATP (Km) 20 uM; read-out: INH-KITV560G (exon 11) IC50
Chain of KIT V560G (P10721 26-976 V560G): as the sequence (P10721 26-976 V559D/T670I) above, with D534V, V535G, I645T counted along it
Protocol: as §1, §2, §3

[4] = biological target: PDGFRα D842V (Homo sapiens (Human), UniProt P16234, D842V); details: poly[Glu:Tyr] (4:1), ATP (Km) 1 uM, read-out: INH-PDGFRα D842V (exon 18) IC50
Chain of PDGFRα D842V (P16234 24-1089 D842V): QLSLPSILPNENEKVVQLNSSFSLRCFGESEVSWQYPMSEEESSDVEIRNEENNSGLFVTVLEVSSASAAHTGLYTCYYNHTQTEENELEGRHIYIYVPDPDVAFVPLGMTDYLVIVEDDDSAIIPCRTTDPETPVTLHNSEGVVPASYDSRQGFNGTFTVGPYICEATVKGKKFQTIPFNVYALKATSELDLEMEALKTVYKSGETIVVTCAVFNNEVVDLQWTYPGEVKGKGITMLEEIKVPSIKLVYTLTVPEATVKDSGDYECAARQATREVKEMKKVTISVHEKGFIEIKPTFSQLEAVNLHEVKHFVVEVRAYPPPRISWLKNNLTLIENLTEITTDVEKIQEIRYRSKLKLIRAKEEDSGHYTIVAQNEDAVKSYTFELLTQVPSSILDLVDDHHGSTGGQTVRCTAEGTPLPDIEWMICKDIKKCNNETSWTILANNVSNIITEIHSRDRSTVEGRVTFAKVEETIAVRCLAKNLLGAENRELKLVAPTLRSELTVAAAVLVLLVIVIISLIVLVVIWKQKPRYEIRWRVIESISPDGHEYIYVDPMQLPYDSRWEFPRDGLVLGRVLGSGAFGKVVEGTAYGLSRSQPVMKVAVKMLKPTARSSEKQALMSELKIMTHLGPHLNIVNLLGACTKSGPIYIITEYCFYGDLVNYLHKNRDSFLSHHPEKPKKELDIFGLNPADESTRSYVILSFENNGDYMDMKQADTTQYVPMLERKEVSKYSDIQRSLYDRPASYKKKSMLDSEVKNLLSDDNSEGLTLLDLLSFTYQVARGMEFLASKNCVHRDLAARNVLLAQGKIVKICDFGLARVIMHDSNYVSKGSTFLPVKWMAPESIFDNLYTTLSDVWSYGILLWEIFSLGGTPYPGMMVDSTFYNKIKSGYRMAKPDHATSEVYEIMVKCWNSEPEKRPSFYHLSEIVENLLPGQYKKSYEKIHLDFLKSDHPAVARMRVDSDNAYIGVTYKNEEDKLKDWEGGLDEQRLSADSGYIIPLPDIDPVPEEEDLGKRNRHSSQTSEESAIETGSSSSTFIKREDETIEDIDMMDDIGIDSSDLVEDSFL
Protocol: as §1, §2, §3

[5] = biological target: wild-type KIT (Homo sapiens (Human), UniProt P10721); details: c-KIT WT, poly[Glu:Tyr] (4:1), ATP (Km) 100 uM; read-out: INH-KITWT IC50
Chain of wild-type KIT (P10721 26-976): as the sequence (P10721 26-976 V559D/T670I) above, with D534V, I645T counted along it
Protocol: as §1, §2, §3

Question: Cn1cc(-c2cc3c(N4CCN(c5ncc([C@@](C)(N)c6ccc(F)cc6)cn5)CC4)ccnn3c2)cn1 [Compound 1, (S)-1-(4-fluorophenyl)-1-(2-(4-(6-(1-methyl-1H-pyrazol-4-yl)pyrrolo[1,2-b]pyridazin-4-yl)piperazin-1-yl)pyrimidin-5-yl)ethanamine] was tested. Which IC50 [1] did it give?
Answer: 1.01 to 10 nM

Question: And the IC50 [2]?
Answer: 1.01 to 10 nM

Question: What about the IC50 [3] of the same compound?
Answer: 1.01 to 10 nM

Question: And the IC50 [4]?
Answer: < 1 nM

Question: And the IC50 [5]?
Answer: > 100 nM

Question: Which results are given for Cn1cc(-c2cc3c(N4CCN(c5ncc([C@@](C)(N)c6ccc(F)cc6)cn5)CC4)c(C#N)cnn3c2)cn1 [Compound 4, (S)-4-(4-(5-(1-amino-1-(4-fluorophenyl)ethyl)pyrimidin-2-yl)piperazin-1-yl)-6-(1-methyl-1H-pyrazol-4-yl)pyrrolo[1,2-b]pyridazine-3-carbonitrile]?
Answer: IC50 [1]: 1.01 to 10 nM; IC50 [2]: 10 to 100 nM; IC50 [3]: 1.01 to 10 nM; IC50 [4]: < 1 nM; IC50 [5]: > 100 nM

Question: Which IC50 [1] does the source give for Cn1cc(-c2cc3c(N4CCN(c5ncc([C@@](C)(N)c6ccc(F)cc6)cn5)CC4)c(F)cnn3c2)cn1 [Compound 2, (S)-1-(2-(4-(3-fluoro-6-(1-methyl-11H-pyrazol-4-yl)pyrrolo[1,2-b]pyridazin-4-yl)piperazin-1-yl)pyrimidin-5-yl)-1-(4-fluorophenyl)ethanamine] here?
Answer: 1.01 to 10 nM

Question: What about the IC50 [2] of the same compound?
Answer: 10 to 100 nM

Question: What about the IC50 [3] of the same compound?
Answer: 10 to 100 nM

Question: And the IC50 [4]?
Answer: < 1 nM

Question: And the IC50 [5]?
Answer: > 100 nM

Question: What does the source list for Cn1cc(-c2cc3c(N4CCN(c5ncc([C@@](C)(N)c6ccc(F)cc6)cn5)CC4)c(Cl)cnn3c2)cn1 [Compound 3, (S)-1-(2-(4-(3-chloro-6-(1-methyl-1H-pyrazol-4-yl)pyrrolo[1,2-b]pyridazin-4-yl)piperazin-1-yl)pyrimidin-5-yl)-1-(4-fluorophenyl)ethanamine]?
Answer: IC50 [1]: 1.01 to 10 nM; IC50 [2]: > 100 nM; IC50 [3]: 10 to 100 nM; IC50 [4]: < 1 nM; IC50 [5]: > 100 nM
